For this test, the system named is lymphocytic leukemia P388. Briefly: Lymphocytic Leukemia P388 Test. The test is classed as in vivo, BDF1 mice. Particulars: for Median Survival: BDF1 mice; for response vs control in vivo at 0.75 mg/kg / response vs control in vivo at 1.5 mg/kg / response vs control in vivo at 3 mg/kg: Mus musculus, P388, ip. In short, it runs like this:
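BDF1 mice (5–6 per group) were inoculated i.p. with 10^6 P388 cells, then dosed i.p. on days 1, 5 and 9 at various doses. Survival was followed for 60 days, and median survival time and the treated/control (T/C) survival ratio were calculated.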

[1] abbreviates: dose 0.75 mg/kg intraperitoneally on days 1, 5 and 9.
[2] abbreviates: dose 0.75 mg/kg intraperitoneally on days 1, 5 and 9, ratio of survival time treated/control.
Where [3] appears, read: dose 1.5 mg/kg intraperitoneally on days 1, 5 and 9.
The mark [4] stands for this setting: dose 1.5 mg/kg intraperitoneally on days 1, 5 and 9, ratio of survival time treated/control.
[5] abbreviates: dose 3 mg/kg intraperitoneally on days 1, 5 and 9.
Setting [6] is: dose 3 mg/kg intraperitoneally on days 1, 5 and 9, ratio of survival time treated/control.

Where two headings read alike, the source gives them in different places.

Take `CC(C)C[C@H](N)C(=O)NCCNc1ccc(NCCNC(=O)[C@@H](N)CC(C)C)c2c1C(=O)c1c(O)ccc(O)c1C2=O.Cl.Cl` (stereo in doubt) [Example 18, [S-(R*,R*)]-N,N'-[(9,10-Dihydro-5,8-dihydroxy-9,10-dioxo-1,4-anthracenediyl)bis(imino-2,1-ethanediyl)]bis-[-amino-4-methylpentanamide], dihydrochloride]: the “Median Survival” value by setting is: under setting [1], 25.5 days; under setting [3], 26.0 days; under setting [5], 18.0 days. The “T/C × 100 (%)” value is, setting by setting: under setting [2], 213%; under setting [4], 217%; under setting [6], 150%.

`CC(C)C[C@@H](N)C(=O)NCCNc1ccc(NCCNC(=O)[C@H](N)CC(C)C)c2c1C(=O)c1c(O)ccc(O)c1C2=O.Cl.Cl` (stereo in doubt) [Example 20, [(R*,R*)]-N,N'-[(9,10-Dihydro-5,8-dihydroxy-9,10-dioxo-1,4-anthracenediyl)bis(imino-2,1-ethanediyl)]bis-[2-amino-4-methylentanamide], dihydrochloride]: the “Median Survival” value under setting [1] is 20.5 days, the “Median Survival” value under setting [3] came out at 22.5 days and the “Median Survival” value under setting [5] was determined as 23.5 days. The “T/C × 100 (%)” value is recorded as 171% under setting [2], 188% under setting [4] and 196% under setting [6].

On to `C[C@@H](N)C(=O)NCCNc1ccc(NCCNC(=O)[C@@H](C)N)c2c1C(=O)c1c(O)ccc(O)c1C2=O.Cl.Cl` (stereo in doubt) [Example 25, [R-(R*,R*)]-N,N'-[(9,10-Dihydro-5,8-dihydroxy-9,10-dioxo-1,4-anthracenediyl)bis(imino-2,1-ethanediyl)]bis-[2-aminopropanamide], dihydrochloride], for which the “Median Survival” value runs as follows: under setting [1], 19.0 days; under setting [3], 20.0 days; under setting [5], 24.0 days. The “T/C × 100 (%)” value reads like this: under setting [2], 173%; under setting [4], 182%; under setting [6], 218%.

In the case of `Br.Br.CC(C)C[C@H](N)C(=O)NCCNc1ccc(NCCNC(=O)[C@@H](N)CC(C)C)c2c1C(=O)c1c(O)ccc(O)c1C2=O` (stereo in doubt) [Example 31, [S-(R*,R*)]-N,N'-[(9,10-Dihydro-5,8-dihydroxy-9,10-dioxo-1,4-anthracenediyl)bis(imino-2,1-ethanediyl)]bis[2-amino-4-methylpentanamide], dihydrobromide], the “Median Survival” value runs as follows: under setting [1], 17.5 days; under setting [3], 18.0 days; under setting [5], 21.0 days. Further, the “T/C × 100 (%)” value was 175% under setting [2], 180% under setting [4] and 210% under setting [6].

Take `C[C@H](NC(=O)OC(C)(C)C)C(=O)N[C@@H](C)C(=O)N(CCNc1ccc(NCCN(C(=O)[C@H](C)NC(=O)[C@H](C)NC(=O)OC(C)(C)C)[C@@H](C)C(=O)O)c2c1C(=O)c1c(O)ccc(O)c1C2=O)[C@@H](C)C(=O)O` [Example 7., N,N'-[(9,10-Dihydro-5,8-dihydroxy-9,10-dioxo-1,4-anthracenediyl)bis(imino-2,1-ethanediyl)]bis[N-[(1,1-dimethylethoxy)carbonyl]-L-alanyl-L-alanyl-L-alanine]]: under “read-out: T/C × 100 (%)”, the response vs control in vivo at 0.75 mg/kg was found to be 176%. In addition, the response vs control in vivo at 1.5 mg/kg (read-out: T/C × 100 (%)) is 171%. In addition, the response vs control in vivo at 3 mg/kg (read-out: T/C × 100 (%)) came out at 181%. The “Median Survival” value by setting is: under setting [1], 18.5 days; under setting [3], 18.0 days; under setting [5], 19.0 days.

On to `CC(C)CC(N)C(=O)N(CCO)CCNc1ccc(NCCN(CCO)C(=O)C(N)CC(C)C)c2c1C(=O)c1c(O)ccc(O)c1C2=O.Cl.Cl` (stereo not drawn) [Example 28, N,N'-[(9,10-Dihydro-5,8-dihydroxy-9,10-dioxo-1,4-anthracenediyl)bis(imino-2,1-ethanediyl)]bis[2-amino-N-(2-hydroxyethyl)-4-methylpentanamide], dihydrochloride], for which, under “dose 0.75 mg/kg intraperitoneally on days 1, 5 and 9, ratio of survival time treated/control, read-out: T/C × 100 (%)”, the response vs control in vivo at 0.75 mg/kg came to 109%. Moreover, where the note is “dose 1.5 mg/kg intraperitoneally on days 1, 5 and 9, ratio of survival time treated/control, read-out: T/C × 100 (%)”, the response vs control in vivo at 1.5 mg/kg amounted to 127%. Also, the response vs control in vivo at 3 mg/kg (dose 3 mg/kg intraperitoneally on days 1, 5 and 9, ratio of survival time treated/control, read-out: T/C × 100 (%)) came to 155%. For the same molecule, the “Median Survival” value was found to be 12.0 days under setting [1], 14.0 days under setting [3] and 17.0 days under setting [5].

On to `Br.Br.CC(C)C[C@H](N)C(=O)N[C@@H](C)C(=O)NCCNc1ccc(NCCNC(=O)[C@H](C)NC(=O)[C@@H](N)CC(C)C)c2c1C(=O)c1c(O)ccc(O)c1C2=O` [Example 50, N,N'-[(9,10-Dihydro-5,8-dihydroxy-9,10-dioxo-1,4-anthracenediyl)bis(imino-2,1-ethanediyl)]bis[L-leucyl-L-alaninamide], dihydrobromide], for which the response vs control in vivo at 0.75 mg/kg (read-out: T/C × 100 (%), dose 0.75 mg/kg intraperitoneally on days 1, 5 and 9, ratio of survival time treated/control) was determined as 170%. Further, the response vs control in vivo at 1.5 mg/kg (read-out: T/C × 100 (%), dose 1.5 mg/kg intraperitoneally on days 1, 5 and 9, ratio of survival time treated/control) was 200%. Moreover, where the note is “read-out: T/C × 100 (%), dose 3 mg/kg intraperitoneally on days 1, 5 and 9, ratio of survival time treated/control”, the response vs control in vivo at 3 mg/kg worked out at 200%. Further, the “Median Survival” value reads like this: under setting [1], 17.0 days; under setting [3], 20.0 days; under setting [5], 20.0 days.

Take `CC(C)C[C@H](NC(=O)OCc1ccccc1)C(=O)N[C@@H](C)C(=O)N[C@@H](CC(C)C)C(=O)NCCNc1ccc(NCCNC(=O)[C@H](CC(C)C)NC(=O)[C@H](C)NC(=O)[C@H](CC(C)C)NC(=O)OCc2ccccc2)c2c1C(=O)c1c(O)ccc(O)c1C2=O` [Example 51]: the “Median Survival” value was 20.0 days under setting [1], 19.0 days under setting [3] and 17.0 days under setting [5]. For the same molecule, the “T/C × 100 (%)” value is, setting by setting: under setting [2], 182%; under setting [4], 173%; under setting [6], 155%.

For `Br.Br.CC(C)C[C@H](NC(=O)[C@H](C)NC(=O)[C@@H](N)CC(C)C)C(=O)NCCNc1ccc(NCCNC(=O)[C@H](CC(C)C)NC(=O)[C@H](C)NC(=O)[C@@H](N)CC(C)C)c2c1C(=O)c1c(O)ccc(O)c1C2=O` [Example 52, N,N'-[(9,10-Dihydro-5,8-dihydroxy-9,10-dioxo-1,4-anthracenediyl)bis(imino-2,1-ethanediyl)]bis[L-leucyl-L-Alanyl-L-leucinamide]dihydrobromide], the “Median Survival” value by setting is: under setting [1], 20.5 days; under setting [3], 25.5 days; under setting [5], 25.0 days. Besides, the “T/C × 100 (%)” value by setting is: under setting [2], 205%; under setting [4], 255%; under setting [6], 250%.

Turning to `O=C(CNC(=O)OCc1ccccc1)N[C@@H](Cc1ccccc1)C(=O)NCCNc1ccc(NCCNC(=O)[C@H](Cc2ccccc2)NC(=O)CNC(=O)OCc2ccccc2)c2c1C(=O)c1c(O)ccc(O)c1C2=O` [Example 53], the “Median Survival” value came to 18.5 days under setting [1], 17.5 days under setting [3] and 19.0 days under setting [5]. The “T/C × 100 (%)” value was found to be 168% under setting [2], 159% under setting [4] and 173% under setting [6].

Regarding `C[C@H](NC(=O)OCc1ccccc1)C(=O)NCC(=O)NCCNc1ccc(NCCNC(=O)CNC(=O)[C@H](C)NC(=O)OCc2ccccc2)c2c1C(=O)c1c(O)ccc(O)c1C2=O` [Example 55], the “Median Survival” value under setting [1] is 12.5 days, the “Median Survival” value under setting [3] is 13.0 days and the “Median Survival” value under setting [5] was determined as 19.0 days. In addition, the “T/C × 100 (%)” value is, setting by setting: under setting [2], 114%; under setting [4], 118%; under setting [6], 173%.

For the molecule `Br.Br.C[C@H](N)C(=O)NCC(=O)NCCNc1ccc(NCCNC(=O)CNC(=O)[C@H](C)N)c2c1C(=O)c1c(O)ccc(O)c1C2=O` [Example 56, N,N'-[(9,10-Dihydro-5,8-dihydroxy-9,10-dioxo-1,4-anthracenediyl)bis(imino-2,1-ethanediyl)]bis[L-alanyl-glycinamine]dihydrobromide], the “Median Survival” value was determined as 21.0 days under setting [1], 28.0 days under setting [3] and 32.5 days under setting [5]. Moreover, the “T/C × 100 (%)” value reads like this: under setting [2], 191%; under setting [4], 255%; under setting [6], 295%.

On to `O=C(CNC(=O)CNC(=O)OCc1ccccc1)NCCNc1ccc(NCCNC(=O)CNC(=O)CNC(=O)OCc2ccccc2)c2c1C(=O)c1c(O)ccc(O)c1C2=O` [Example 57, N,N'-[(9,10-Dihydro-5,8-dihydroxy-9,10-dioxo-1,4-anthracenediyl)bis(imino-2,1-ethanediyl)]bis[N-[(phenylmethoxy)carbonyl]glycyl]glycinamide], for which the “Median Survival” value is, setting by setting: under setting [1], 12.0 days; under setting [3], 14.0 days; under setting [5], 15.0 days. The “T/C × 100 (%)” value under setting [2] was found to be 109%, the “T/C × 100 (%)” value under setting [4] was 127% and the “T/C × 100 (%)” value under setting [6] worked out at 136%.
